In PMC4474691, “Leukemia-Associated Mutations in Nucleophosmin Alter Recognition by CRM1: Molecular Basis of Aberrant Transport” (PLoS ONE, 2015):
Read-outs that look alike come from different tables or passages of the source. Values belong to the substance of their own block, whether it stands above or below them.

Tests used:
wild type CRM1 = test: Fluorescence anisotropy binding assay, wild type CRM1; parameters: species or system mouse; details: TFP-PKI 50 nM, 25°C, 20 mM Tris/HCl pH 7.4, wild type CRM1, compared with CRM1^HA
Text: For recombinant production in E. coli, we subcloned wild type NPM, as well as mutants A and E, as N-terminal (His)10 –ZZ tagged constructs in pTG-A20 vector [22]. The original clone of wild type mouse CRM1, N-terminally fused to a His—ZZ tag was a kind gift of Dr. Dirk Görlich (Max Planck Institute for Biophysical Chemistry, Göttingen). We generated the high affinity CRM1 mutant (CRM1^HA) from a clone provided by Dr. Murray Stewart (MRC Laboratory of Molecular Biology, Cambridge). […]
Fluorescence anisotropy binding assays
To estimate CRM1 binding affinities for NES motifs we monitored binding with a fluorescence-polarization assay based on previously described approaches. The increase in fluorescence anisotropy of TFP/YFP when the TFP/YFP-NES construct (50 nM) binds to 0–60 μM CRM1 (either CRM^HA or wild type) was recorded at 25°C with a 8100 SLM-Aminco spectrofluorometer in buffer 20 mM Tris/HCl, pH 7.4, 50 mM NaCl, 5 mM DTT, 2 mM MgCl2. […]
Fig 4 Binding of CRM1 to TFP-NES constructs. […] Fraction bound was calculated from the relative increase in fluorescence anisotropy of TFP (λexc 463 nm, λem 500 nm). […]
We next used the TFP-(NES) constructs to monitor CRM1^HA binding to each motif, using the change in fluorescence anisotropy upon complex formation as a readout (Fig 4B), as previously described. […]

CRM1^HA [1] = target: T1, CRM1^HA (Mus musculus, UniProt Q6P5F9, L431A/V430A/V432A); test: Ni-NTA chromatography of TFP-NES / CRM1^HA complex formation; assay type: binding; details: 2.5 mg His-tagged TFP construct on 1 mL Histrap FF, 1 mL CRM1^HA 18 μM; 50 mM Tris/HCl pH 8.0, 500 mM NaCl; SDS-PAGE
T1 construct: His-ZZ (cleaved yes); made in house; host or cells: Escherichia coli BL21-CodonPlus (DE3)
T1 sequence (Q6P5F9 1-1062 V430A/L431A/V432A limits assumed): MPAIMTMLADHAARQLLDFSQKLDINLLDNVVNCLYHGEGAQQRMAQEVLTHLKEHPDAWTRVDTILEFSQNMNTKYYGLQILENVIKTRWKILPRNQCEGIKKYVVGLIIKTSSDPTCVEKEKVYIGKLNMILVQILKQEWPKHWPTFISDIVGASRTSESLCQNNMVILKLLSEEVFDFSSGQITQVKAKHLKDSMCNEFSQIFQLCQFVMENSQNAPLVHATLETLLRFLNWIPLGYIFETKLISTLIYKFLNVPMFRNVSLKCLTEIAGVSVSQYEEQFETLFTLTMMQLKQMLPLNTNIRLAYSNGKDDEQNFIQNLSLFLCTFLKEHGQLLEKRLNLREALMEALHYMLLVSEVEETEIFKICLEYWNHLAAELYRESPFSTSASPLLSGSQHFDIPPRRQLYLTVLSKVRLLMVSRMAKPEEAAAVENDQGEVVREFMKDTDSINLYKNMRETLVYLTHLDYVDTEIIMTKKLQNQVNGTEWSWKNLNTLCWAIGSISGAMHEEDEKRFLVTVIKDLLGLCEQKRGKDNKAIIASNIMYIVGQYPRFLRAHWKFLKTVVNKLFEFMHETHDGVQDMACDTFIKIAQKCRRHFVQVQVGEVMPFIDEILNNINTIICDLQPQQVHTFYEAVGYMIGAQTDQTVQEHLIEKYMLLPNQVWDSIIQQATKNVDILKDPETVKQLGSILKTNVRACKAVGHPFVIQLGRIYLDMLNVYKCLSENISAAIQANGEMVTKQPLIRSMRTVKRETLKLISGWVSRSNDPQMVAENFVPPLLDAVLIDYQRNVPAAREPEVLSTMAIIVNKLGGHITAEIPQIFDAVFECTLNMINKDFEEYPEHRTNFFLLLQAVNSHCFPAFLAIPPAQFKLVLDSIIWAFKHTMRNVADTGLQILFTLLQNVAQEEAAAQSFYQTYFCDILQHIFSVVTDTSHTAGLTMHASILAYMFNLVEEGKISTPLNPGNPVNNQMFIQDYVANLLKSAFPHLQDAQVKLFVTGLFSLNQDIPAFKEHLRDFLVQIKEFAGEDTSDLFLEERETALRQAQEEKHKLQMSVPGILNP
Text: Although the relative potency of the NESs acquired by the different NPM mutants has been compared using an in vivo export assay, their CRM1-binding affinities have not yet been determined. We cloned the NESs of mutant A and E as C-terminal fusions to a teal fluorescent protein (TFP) (Fig 4A). As a reference, we generated an equivalent construct with the well-characterized NES of protein kinase inhibitor (PKI). We first tested the binding of CRM1^HA to the TFP-NES constructs using Ni-NTA chromatography. His-tagged TFP constructs were bound to the Ni-NTA column, and an excess of untagged CRM1^HA was then injected (S4 Fig).
Supplementary file pone.0130610.s004.tif: S4 Fig TFP-NES / CRM1^HA complex formation shown by Ni-NTA chromatography. 2.5 mg of the His-tagged TFP construct were loaded on a 1 mL Histrap FF (GE Healthcare) in buffer 50 mM Tris/HCl, pH 8.0, 500 mM NaCl, 1 mM TCEP, 2 mM MgCl2, 5% glycerol, containing 15 mM imidazole. After washing with the same buffer, 1 mL of CRM1^HA at 18 μM was injected at 0.1 mL/min flow rate. Unbound CRM1^HA was collected, and then bound proteins were eluted with 2 M imidazole. SDS-PAGE of elution fractions: Unbound (free) CRM1^HA and the fraction eluted with imidazole, containing both the His-tagged TFP construct along with bound CRM1^HA. (TIF) Click here for additional data file.

CRM1^HA [2] = target: T1, CRM1^HA; details: previously described, CRM1^HA binding to YFP-PKI(NES); cited from earlier work
Text: We next used the TFP-(NES) constructs to monitor CRM1^HA binding to each motif, using the change in fluorescence anisotropy upon complex formation as a readout (Fig 4B), as previously described.

CRM1^HA [3] = target: T1, CRM1^HA; test: Isothermal titration calorimetry, CRM1^HA / NES; assay type: binding; details: ITC, NES ligand (35–180 μM) titrated onto CRM1^HA (2–14 μM), 20°C, 20 mM HEPES pH 7.4, 50 mM NaCl, 1 mM TCEP, 1 mM MgCl2; independent binding sites model; read-out: KD
Procedure: Isothermal titration calorimetry (ITC)
ITC measurements were carried out using a VIP-ITC MicroCalorimeter (MicroCal, Inc., Northampton, MA). TFP and YFP constructs, as well as CRM1^HA, were dialyzed in a buffer containing 20 mM HEPES, pH 7.4, 50 mM NaCl, 1 mM TCEP, 1 mM MgCl2, and degassed prior to the experiment. Untagged peptides (AS: QDLCLAVEEVSLRK, AL: EAIQDLCLAVEEVSLRK, ES: QDLWQSLAQVSLRK and EL: EAIQDLWQSLAQVSLRK), N-acetylated and 95% pure, were purchased from Proteogenix (Schiltigheim, France) and resuspended in the ITC buffer. Measurements were performed at 20°C. TFP-NES, YFP-NES or NES peptides at 35–180 μM were titrated onto CRM1^HA at 2–14 μM. Injections of 6 μL were performed at 320 seconds interval (the first injection always was of 1 μL and is not considered in data analysis). To determine the thermodynamic parameters of NPM / importin interaction, importin α, importin Δα or importin α/β at 45–60 μM were titrated onto NPM (1–1.2 μM pentamer) in 50 mM Tris/HCl, pH 7.5, 100 mM NaCl, 2 mM TCEP, and 10% glycerol. […] “Reverse” titrations, where 20–30 μM NPM was titrated onto 7–10 μM of the different importins were also performed and yielded similar results.
The reaction heat of each injection is related to the calorimetric enthalpy of binding, ΔH^0. The binding isotherms, ΔH^0 vs. molar ratio, were analyzed with an independent binding sites model using MicroCal Origin software. The fit of the binding curve yields the binding constant KA (KD = 1/KA) and the enthalpy ΔH^0 of the binding reaction. The Gibbs free energy of binding ΔG^0 and the entropy ΔS^0 are determined from the basic thermodynamic expressions: ΔG^0 = -RTlnKA = ΔH^0−TΔS^0, where R and T are the gas constant and the absolute temperature, respectively.
Fig 5 Analysis of CRM1^HA/TFP-NES interaction by ITC. Isothermal titration of CRM1^HA with TFP-mutE(NES). […] The titration of negative control TFP-Cter (180 μM) onto CRM1^HA (14 μM) (circles) is also shown for comparison.

importin α/β = importin α/β binding of nucleoplasmin; cited from earlier work
Text: Our study has explored the molecular determinants of both NPM export (CRM1/NES) and import (importin α/β/NLS). […] This lower affinity could be related to the fact that NPM NLS includes one basic residue less in the major cluster of the bipartite motif than NP NLS. […] This, together with the very low affinity of CRM1 for wild type NPM and significant avidity for nucleolar comp ...

CRM1 = details: cited from earlier work
Text: Two sequence motifs in the core domain of NPM (residues 42–61 and 94–102) (Fig 1) have been investigated as candidate NESs. In addition, we have detected a further putative NES in the C-terminal region (see below). However, it is still unclear to what extent any of these sequences represents NPM physiological NESs.

binding of wild type CRM1 (wild type CRM1): much weaker than that of CRM1^HA
Substance: LALKLAGLDI [TFP-PKI(NES)]
CRM1^HA binding in Ni-NTA chromatography (CRM1^HA [1]): stronger than its binding to TFP- mutE(NES)

Kd (CRM1^HA [3]): 0.018 ± 0.003 µM
Substance: YFP-PKI(NES): previously described YFP-PKI(NES) construct (LALKLAGLDI; fusion to YFP (carrier omitted); linker stated to be 2 residues longer than in TFP construct) [reference compound]
Kd (CRM1^HA [2]): 0.025 µM

Substance: nucleoplasmin: homologous protein nucleoplasmin
Kd (importin α/β): 0.057 µM

Substance: residues 42–61: candidate NES motif in the core domain of NPM (LSLRTVSLGAGAKDELHIVE; UniProt P06748 42-61, looked up, fragment)
binding to CRM1 (CRM1): no binding to CRM1
